From ChEMBL document CHEMBL4808235, “Identification of 6-hydroxy-5-phenyl sulfonylpyrimidin-4(1H)-one APJ receptor agonists” (Bioorg Med Chem Lett, 2021)

Legend:
[1] = biological target: T1, Apelin receptor (Homo sapiens, UniProt P35414); assay: Agonist activity at human APJ receptor assessed as effect on cAMP accumulation by cAMP-Glo assay; type: functional
T1 sequence (P35414 whole entry): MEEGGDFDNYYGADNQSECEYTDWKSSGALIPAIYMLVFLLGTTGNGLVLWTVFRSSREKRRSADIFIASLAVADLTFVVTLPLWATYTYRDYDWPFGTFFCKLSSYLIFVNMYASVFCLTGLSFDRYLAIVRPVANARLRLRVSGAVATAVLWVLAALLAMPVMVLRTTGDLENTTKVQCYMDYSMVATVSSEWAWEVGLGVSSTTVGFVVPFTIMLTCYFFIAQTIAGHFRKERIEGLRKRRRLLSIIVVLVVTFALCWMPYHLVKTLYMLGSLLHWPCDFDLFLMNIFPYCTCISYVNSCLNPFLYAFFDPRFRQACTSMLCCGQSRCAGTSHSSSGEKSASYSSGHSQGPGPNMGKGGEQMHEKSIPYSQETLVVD

[2] = biological target: T2, Apelin receptor (Rattus norvegicus, UniProt Q9JHG3); assay: Agonist activity at rat APJ receptor assessed as effect on cAMP accumulation by cAMP-Glo assay; type: functional
T2 sequence (Q9JHG3 whole entry): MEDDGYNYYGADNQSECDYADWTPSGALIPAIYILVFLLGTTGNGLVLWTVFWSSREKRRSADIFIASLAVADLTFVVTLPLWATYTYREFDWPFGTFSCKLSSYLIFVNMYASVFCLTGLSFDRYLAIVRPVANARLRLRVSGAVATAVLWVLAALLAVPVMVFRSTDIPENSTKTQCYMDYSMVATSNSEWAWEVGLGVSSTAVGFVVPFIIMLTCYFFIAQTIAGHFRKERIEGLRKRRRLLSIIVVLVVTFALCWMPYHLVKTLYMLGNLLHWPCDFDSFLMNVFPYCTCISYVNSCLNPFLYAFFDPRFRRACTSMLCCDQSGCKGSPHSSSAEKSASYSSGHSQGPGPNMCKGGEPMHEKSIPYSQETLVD

[3] = biological target: T3, Apelin receptor (Mus musculus, UniProt Q9WV08); assay: Agonist activity at mouse APJ receptor assessed as effect on cAMP accumulation by cAMP-Glo assay
T3 sequence (Q9WV08 whole entry): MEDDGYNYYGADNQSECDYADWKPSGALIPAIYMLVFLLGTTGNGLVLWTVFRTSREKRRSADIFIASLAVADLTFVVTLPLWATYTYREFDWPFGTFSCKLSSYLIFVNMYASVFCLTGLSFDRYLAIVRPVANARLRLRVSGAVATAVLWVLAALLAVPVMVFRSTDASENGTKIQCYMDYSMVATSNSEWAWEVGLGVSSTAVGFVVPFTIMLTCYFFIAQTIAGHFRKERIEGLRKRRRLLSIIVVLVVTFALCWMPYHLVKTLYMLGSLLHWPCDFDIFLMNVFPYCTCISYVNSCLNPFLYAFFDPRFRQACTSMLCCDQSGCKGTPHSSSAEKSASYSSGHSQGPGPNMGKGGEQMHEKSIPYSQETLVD

[4] = Metabolic stability in human liver microsomes assessed as parent compound remaining incubated for 10 mins in presence of NADPH; type: ADME, Microsome; details: read-out: Stabilty
[5] = Metabolic stability in rat liver microsomes assessed as parent compound remaining incubated for 10 mins in presence of NADPH; type: ADME, Microsome; details: read-out: Stabilty
[6] = Metabolic stability in mouse liver microsomes assessed as parent compound remaining incubated for 10 mins in presence of NADPH; type: ADME, Microsome; details: read-out: Stabilty
[7] = Permeability of the compound at pH 5.5 by PAMPA; type: ADME; details: read-out: permeability
[8] = Permeability of the compound at pH 7.4 by PAMPA; type: ADME; details: read-out: permeability
[9] = Cmax in rat at 1 mg/kg, po; type: ADME, organism-based; design: route oral, dose 1 mg/kg; details: in vivo
[10] = AUC (0 to 24 hrs) in rat at 1 mg/kg, po; type: ADME, organism-based; design: time < 24 hr, route oral, dose 1 mg/kg; details: in vivo
[11] = Half life in rat at 1 mg/kg, po; type: ADME, organism-based; details: in vivo
[12] = in vivo; details: rat, po, 1 mg/kg

Q: Which EC50 [1] does the source give for `CCCCc1[nH]c(=O)c(S(=O)(=O)c2ccc(-c3ccc(F)cc3)cc2)c(O)c1-c1c(OC)cccc1OC` here?
A: 17 nM

Q: What about the EC50 [2] of the same compound?
A: 72 nM

Q: And the EC50 [3]?
A: 34 nM

Q: Which EC50 [1] does the source give for `CCCCc1nc(=O)c(S(=O)(=O)c2ccccc2)c(O)n1-c1c(OC)cccc1OC` here?
A: 0.5 nM

Q: What about the EC50 [2] of the same compound?
A: 0.9 nM

Q: What about the EC50 [3] of the same compound?
A: 1 nM

Q: What about the remaining at 10 min [4] of the same compound?
A: 89%

Q: What about the remaining at 10 min [5] of the same compound?
A: 93%

Q: What about the remaining at 10 min [6] of the same compound?
A: 79%

Q: What about the Papp [7] of the same compound?
A: 14.1 ×10⁻⁶ cm/s

Q: And the Papp [8]?
A: 0.15 ×10⁻⁶ cm/s

Q: Which results are given for `CCCCc1[nH]c(=O)c(S(=O)(=O)c2ccc(-c3cccnc3OC)cc2)c(O)c1-c1c(OC)cccc1OC`?
A: EC50 [1]: 0.03 nM; EC50 [2]: 0.7 nM; EC50 [3]: 0.2 nM; remaining at 10 min [4]: 72%; remaining at 10 min [6]: 24%

Q: For `COc1cccc(OC)c1-n1c(-c2cncc(C)c2)nc(=O)c(S(=O)(=O)c2ccc(C3CC3)cc2)c1O`, which EC50 [1] is on record?
A: 5 nM

Q: What about the EC50 [2] of the same compound?
A: 10 nM

Q: And the EC50 [3]?
A: 5 nM

Q: For `CCCCc1nc(=O)c(S(=O)(=O)c2ccc(-c3cccnc3OC)cc2)c(O)n1-c1c(OC)cccc1OC`, which EC50 [1] is on record?
A: 0.01 nM

Q: What about the EC50 [2] of the same compound?
A: 0.02 nM

Q: And the EC50 [3]?
A: 0.03 nM

Q: And the remaining at 10 min [4]?
A: 97%

Q: What about the remaining at 10 min [5] of the same compound?
A: 27%

Q: What about the remaining at 10 min [6] of the same compound?
A: 98%

Q: What about the Papp [7] of the same compound?
A: 45.6 ×10⁻⁶ cm/s

Q: For `COc1cccc(OC)c1-n1c(COC(C)C)nc(=O)c(S(=O)(=O)c2ccc(-c3ccc(F)nc3)cc2)c1O`, which EC50 [1] is on record?
A: 0.01 nM

Q: And the EC50 [2]?
A: 0.02 nM

Q: What about the EC50 [3] of the same compound?
A: 0.03 nM

Q: What about the remaining at 10 min [4] of the same compound?
A: 84%

Q: What about the remaining at 10 min [5] of the same compound?
A: 30%

Q: What about the remaining at 10 min [6] of the same compound?
A: 90%

Q: What about the Papp [7] of the same compound?
A: 7.5 ×10⁻⁶ cm/s

Q: And the Papp [8]?
A: 0.4 ×10⁻⁶ cm/s

Q: Which EC50 [3] does the source give for `CCOCc1nc(O)c(-c2nnc(Cc3ccc(Cl)cn3)o2)c(O)c1-c1c(OC)cccc1OC` [BMS-986224] here?
A: 0.027 nM

Q: What about the Cmax [9] of the same compound?
A: 5.3 µM

Q: What about the AUC(0-t) at 24 h [10] of the same compound?
A: 16 µM·h

Q: What about the half-life [11] of the same compound?
A: 2.3 h

Q: What about the AUC(0-inf) [12] of the same compound?
A: 15.5 µM·h

Q: Which results are given for `CCCCc1nc(=O)c(S(=O)(=O)c2ccc(-n3cc(Cl)ccc3=O)cc2)c(O)n1-c1c(OC)cccc1OC`?
A: EC50 [1]: 0.05 nM; EC50 [2]: 0.01 nM; EC50 [3]: 0.02 nM; remaining at 10 min [4]: 94%; remaining at 10 min [5]: 74%; remaining at 10 min [6]: 100%; Papp [7]: 8.3 ×10⁻⁶ cm/s

Q: Which EC50 [1] does the source give for `CCCCc1nc(=O)c(S(=O)(=O)c2ccc(-n3ccccc3=O)cc2)c(O)n1-c1c(OC)cccc1OC` here?
A: 0.02 nM

Q: And the EC50 [3]?
A: 0.03 nM

Q: What about the remaining at 10 min [4] of the same compound?
A: 87%

Q: What about the remaining at 10 min [5] of the same compound?
A: 83%

Q: What about the remaining at 10 min [6] of the same compound?
A: 63%

Q: And the Papp [7]?
A: 1.2 ×10⁻⁶ cm/s

Q: And the Papp [8]?
A: 0.1 ×10⁻⁶ cm/s

Q: Which EC50 [1] does the source give for `CCCCc1nc(=O)c(S(=O)(=O)c2ccc(C)cc2)c(O)n1-c1c(OC)cccc1OC` here?
A: 0.2 nM

Q: What about the EC50 [2] of the same compound?
A: 0.3 nM

Q: And the EC50 [3]?
A: 0.3 nM

Q: And the remaining at 10 min [4]?
A: 94%

Q: And the remaining at 10 min [5]?
A: 74%

Q: What about the remaining at 10 min [6] of the same compound?
A: 80%

Q: And the Papp [7]?
A: 24.3 ×10⁻⁶ cm/s

Q: What about the Papp [8] of the same compound?
A: 0.7 ×10⁻⁶ cm/s

Q: Which EC50 [1] does the source give for `COc1cccc(OC)c1-n1c(C2CCCC2)nc(=O)c(S(=O)(=O)c2ccc(C3CC3)cc2)c1O` here?
A: 0.3 nM

Q: What about the EC50 [2] of the same compound?
A: 1.5 nM

Q: And the EC50 [3]?
A: 0.4 nM
